Laboratory results reported in patent US4231946A, “14,15-Methylene derivatives of the estrane series and methods for preparing same” (VEB Jenapharm, priority 1978, dated 1980).
Where two headings read alike, the source gives them in different places.

Experiments:
inseminated rats = experiment: Antinidation / Nidation Inhibition Test in inseminated rats treated on the 1st day of gestation; type: in vivo, rat; conditions: for ED50 / ED5 / ED95: Rattus norvegicus, po, STS 593 from trial No. 2; for Female rats pregnant of n, normal / Female rats pregnant of n, total / GHE1 / GHE2 / IHE1 / IHE2 / Implantations per female (-x), normal / Implantations per female (-x), total: mestranol 0.2 mg/kg p.o.
Excerpt: The favorable biological properties of the named compounds of the process according to the invention are to be further illustrated and described in the example of 3-methoxy-14β-15β-methylene-estra-1,3,5(10)-triene-17β-ol (test designation STS 593).
(§1) Gestation and nidation inhibition expressed in % were used as parameters for antifertility effects. GHE1 (gestation inhibitory effect) and IHE1 (nidation inhibitory effect) were related to the inhibition of the total of gestations or nidations, GHE2 and IHE2 were related to the inhibition of normal gestations or nidations within each group. […] GHE1, GHE2, IHE1 and IHE2 were calculated using the following formulae: [formula] n=number of females inseminated in each group v=test group
k=control group (sesame oil)
x=number of all gestations (GHE1) and of normal gestations (GHE2) p. group, respectively
(§2) f=average number (x) of all implantations (IHE1) and of normal implantations (IHE2) p. female inseminated within a group, respectively.
The comparison of the relative incidence of gestations was performed by the Ryan test, the comparison of the number of implantations by the Dunn test.
(§3) For GHE1 and GHE2 the ED (effective doses) for the HE (inhibitory effect) 0%, 50%, and 95% as far as possible were determined by means of the probit analysis. The ED50 for IHE1 and IHE2 were determined graphically.

[1] = system: infantile female Wistar rats; experiment: Uterine activity in infantile female Wistar rats; type: in vivo, Wistar rat; conditions: n=10
Excerpt: STS 593 was weaker than ethynylestradiol by a factor of 9 in its estrogenic properties as shown by the Allen-Doisy test in ovariectomized mice. The compound was only 7% as active as the standard mestranol in producing a uterine response in infantile rats (Table 3), whereas the antiestrogenic properties exceeded those of clomiphene citrate by a factor of 1.4.
Comparison of uterine activity in infantile female
Wistar rats produced by STS 593 and mestranol

rats (testicular mass) = experiment: Antigonadotrophic activity (testicular mass) in rats; type: in vivo, rat; conditions: Rattus norvegicus, 120 h; rats; read-out: Effective dose for the HE50, antigonadotrophic
Method: The effective dose for the HE50 was close to 0.65 mg/kg of body-wt./5 d, while mestranol has the same effect at a dose as low as 0.15 mg/kg of body-wt./5 d.

infantile rabbit uteri = experiment: McPhail test, progestagenic and antiprogestagenic activities in infantile rabbit uteri; type: in vivo; conditions: progesterone 4 mg/animal s.c. alone, total dose over 4 days; n=6
Excerpt: The HE of 97.3% is significant (Table 5).
Progestagenic and antiprogestagenic activities of STS 593
in infantile rabbit uteri as shown by the McPhail test

[2] = system: mice (uterine fresh weight); experiment: Uterine activity in mice (dose for doubling uterine fresh weight); type: in vivo, mouse; conditions: for Uterine response / uterine activity (in words): Table 6; for Total dose for doubling uterine fresh weight: p.o.
Excerpt: (§4) Uterine and contraceptive activities produced by selected
(§5) 14,15-methylene-17-ol-estratrienes in mice

mice = experiment: Contraceptive activity in mice, single application on 1st day of gestation; type: in vivo, mouse; conditions: for THE, % after single application of 10 mg/kg of body-wt. on the 1st day of gestation p.o.: mice, 10 mg/kg p.o.; for Contraceptive activities related to IHE1 (ranking in words): among the other compounds of Table 6
Method: as §1, §2, §3, §4, §5

[3] = General statement on antifertility effects and separation from uterine, estrogenic and antigonadotrophic activities; type: in vivo
[4] = determined graphically, read-out: ED 50 for IHE1
[5] = determined graphically, read-out: ED 50 for IHE2
[6] = probit analysis, read-out: ED 50 for GHE1
[7] = probit analysis, read-out: ED 50 for GHE2
[8] = probit analysis, read-out: ED 05 for GHE1
[9] = probit analysis, read-out: ED 05 for GHE2
[10] = probit analysis, read-out: ED 95 for GHE1
[11] = probit analysis, read-out: ED 95 for GHE2

C#C[C@]1(O)CC[C@H]2[C@@H]3CCc4cc(O)ccc4[C@H]3CC[C@@]21C [Ethynylestradiol, reference compound]
ED50 (inseminated rats; [4]): 0.37 mg/kg
ED50 (inseminated rats; [5]): < 0.21 mg/kg
ED50 (inseminated rats; [6]): ≤ 0.45 mg/kg
ED50 (inseminated rats; [7]): < 0.3 mg/kg

C#C[C@]1(O)CC[C@H]2[C@@H]3CCc4cc(OC)ccc4[C@H]3CC[C@@]21C [Mestranol, reference compound]
Female rats pregnant of n, normal (inseminated rats; 1st trial 1975, n=12): 1
Female rats pregnant of n, total (inseminated rats; 1st trial 1975, n=12): 11
GHE1 (inseminated rats; 1st trial 1975, n=12): 8.3%
GHE2 (inseminated rats; 1st trial 1975, n=12): 91.7%
IHE1 (inseminated rats; 1st trial 1975, n=12): 45.3%
IHE2 (inseminated rats; 1st trial 1975, n=12): 98.7%
Implantations per female (-x), normal (inseminated rats; 1st trial 1975, n=12): 0.2
Implantations per female (-x), total (inseminated rats; 1st trial 1975, n=12): 6.8
Female rats pregnant of n, normal (inseminated rats; 2nd trial 1978, n=10): 0
Female rats pregnant of n, total (inseminated rats; 2nd trial 1978, n=10): 6
GHE1 (inseminated rats; 2nd trial 1978, n=10): 40%
GHE2 (inseminated rats; 2nd trial 1978, n=10): 100%
IHE1 (inseminated rats; 2nd trial 1978, n=10): 70.8%
IHE2 (inseminated rats; 2nd trial 1978, n=10): 100%
Implantations per female (-x), normal (inseminated rats; 2nd trial 1978, n=10): 0
Implantations per female (-x), total (inseminated rats; 2nd trial 1978, n=10): 3.8
ED50 (inseminated rats; [4]): 0.17 mg/kg
ED50 (inseminated rats; [5]): 0.15 mg/kg
ED5 (inseminated rats; [8]): 0.097 mg/kg
ED5 (inseminated rats; [9]): 0.065 mg/kg
ED50 (inseminated rats; [6]): 0.34 mg/kg
ED50 (inseminated rats; [7]): 0.163 mg/kg
ED95 (inseminated rats; [10]): 1.11 mg/kg
ED95 (inseminated rats; [11]): 0.387 mg/kg
Uterine weight (-x) ([1]; mestranol total dose 0.6 per animal over 3 days p.o.): 70.11 mg
Uterine weight (-x) ([1]; mestranol total dose 6.0 per animal over 3 days p.o.): 95.45 mg
ED50 (rats (testicular mass)): 0.15 mg/kg

CC(=O)[C@H]1CC[C@H]2[C@@H]3CCC4=CC(=O)CC[C@]4(C)[C@H]3CC[C@]12C [Progesterone, reference compound]
McPhail index (-x) (infantile rabbit uteri): 3.0

COc1ccc2c(c1)CC[C@@H]1[C@@H]2CC[C@]2(C)[C@H](O)C[C@H]3C[C@@]312 [STS 592, 3-methoxy-14β-15β-methylene-estra-1,3,5(10)-triene-17α-ol]
Uterine response / uterine activity (in words) [2]: distinctly weaker uterine activities
Total dose for doubling uterine fresh weight [2]: 7.0 μg/animal
THE, % after single application of 10 mg/kg of body-wt. on the 1st day of gestation p.o. (mice): 35.0%
Separation of desirable contraceptive and undesirable estrogenic effects ([3]; mice, among the compounds of Table 6): most favorable separation

COc1ccc2c(c1)CC[C@@H]1[C@@H]2CC[C@]2(C)C(OC(=O)Nc3ccccc3)CC3C[C@@]312 (stereo partly drawn) [STS 594, 17phenylaminocarbnoyloxy-14β,15methylene-estra-1,3,5(10)-triene-3-mehylether]
Total dose for doubling uterine fresh weight [2]: 100 μg/animal

COc1ccc2c(c1)CC[C@@H]1[C@@H]2CC[C@]2(C)C(OC(=O)Nc3ccccc3)CC3C[C@@]312 (stereo partly drawn) [STS 595, 17phenylaminocarbonyloxy-14β,15methylene-estra-1,3,5(10)-triene-3-mehylether]
Total dose for doubling uterine fresh weight [2]: 100 μg/animal

COc1ccc2c(c1)CC[C@@H]1[C@@H]2CC[C@]2(C)[C@@H](O)C[C@@H]3C[C@]312 [STS 651, 3-methoxy-14α,15α-methylene-estra-1,3,5(10)-triene-17β-ol]
ED50 (inseminated rats; [4]): 0.107 mg/kg
ED50 (inseminated rats; [5]): 0.096 mg/kg
ED5 (inseminated rats; [8]): 0.059 mg/kg
ED5 (inseminated rats; [9]): 0.043 mg/kg
ED50 (inseminated rats; [6]): 0.183 mg/kg
ED50 (inseminated rats; [7]): 0.11 mg/kg
ED95 (inseminated rats; [10]): 0.583 mg/kg
ED95 (inseminated rats; [11]): 0.265 mg/kg
Uterine response / uterine activity (in words) [2]: strongest uterine response
Total dose for doubling uterine fresh weight [2]: 0.2 μg/animal
Contraceptive activities related to IHE1 (ranking in words) (mice): strongest contraceptive activities
THE, % after single application of 10 mg/kg of body-wt. on the 1st day of gestation p.o. (mice): 84.4%

COc1ccc2c(c1)CC[C@@H]1[C@@H]2CC[C@]2(C)[C@H](O)C[C@@H]3C[C@]312 [STS 652, 3-methoxy-14α,15α-methylene-estra-1,3,5(10)-triene-17α-ol]
Uterine response / uterine activity (in words) [2]: distinctly weaker uterine activities
Total dose for doubling uterine fresh weight [2]: 3.0 μg/animal
THE, % after single application of 10 mg/kg of body-wt. on the 1st day of gestation p.o. (mice): 60.0%
Separation of desirable contraceptive and undesirable uterine and antigonadotrophic activities ([3]; in vivo): very favorable separation

COc1ccc2c(c1)CC[C@@H]1[C@@H]2CC[C@@]2(C)[C@@]13C[C@@H]3C[C@]2(C)O [STS 681, 3-methoxy-17α-methyl-14β,15β-methylene-estra-1,3,5(10)-triene-17β-ol]
Uterine response / uterine activity (in words) [2]: distinctly weaker uterine activities
Total dose for doubling uterine fresh weight [2]: 0.56 μg/animal
Contraceptive activities related to IHE1 (ranking in words) (mice): strongest contraceptive activities
THE, % after single application of 10 mg/kg of body-wt. on the 1st day of gestation p.o. (mice): 81.7%
Antifertility effects (in words) ([3]; in vivo): strong antifertility effects
Separation of desirable contraceptive and undesirable uterine and antigonadotrophic activities ([3]; in vivo): very favorable separation
